According to patent publication US6723364B1, “Fog treatment method using a liquid composition for treating fruits and vegetables and implementing device” (Xeda International, priority 1998, dated 2004):
Values after ≈ are worked out from the molar mass of the structure shown.

How the values were obtained:
[1] = system: Alternaria alternata; test: Fungicidal activity in vitro: mycelial growth on Cristomalt agar; format: cell-based
Protocol: (§1) The Cristomalt medium used for the evaluations of the fungicidal activities comprises 0.1% of Cristomalt (malt extract) and 0.2% of agar.
(§2) This culture medium is, after sterilization, brought to 55° C. The terpene compound tested is then introduced in the pure form into the culture medium under warm conditions. Immediately after agitating, the medium, enriched with the terpene product, is poured into Petri dishes (diameter 9 cm, filled with 20 ml of medium). The agar-comprising medium solidifies on cooling. The Petri dishes are then inoculated with plugs, with a diameter of 6 mm, withdrawn from the edge of a culture of the tested fungus, which culture is obtained on Cristomalt medium.
(§3) Inoculation is carried out at 22° C.
(§4) The mycelial growth was determined periodically (5 to 15 days, according to the species of fungus).
(§5) The results are expressed in Table 3 below in terms of MIC, which is the content (in μg/ml) which makes it possible to obtain complete inhibition of mycelial growth.
(§6) In f act, each experiment was carried out several times, so that, for each terpene and for each species of fungus, a minimum value and a maximum value were obtained.

[2] = system: Botrytis cinerea; test: as above; format: cell-based
Protocol: as §1, §2, §3, §4, §5, §6

[3] = system: Fusarium oxysporum; test: as above; format: cell-based
Protocol: as §1, §2, §3, §4, §5, §6

[4] = system: Geocrichum candidum; test: as above; format: cell-based
Protocol: as §1, §2, §3, §4, §5, §6

[5] = system: Gliocladium roseum; test: as above; format: cell-based
Protocol: as §1, §2, §3, §4, §5, §6

[6] = system: Penicillium digitatum; test: as above; format: cell-based
Protocol: as §1, §2, §3, §4, §5, §6

[7] = system: Penicillium expansum; test: as above; format: cell-based
Protocol: as §1, §2, §3, §4, §5, §6

[8] = system: Phlyctaena vagabonda (“Gloeosporium”); test: as above; format: cell-based
Protocol: as §1, §2, §3, §4, §5, §6

[9] = system: Phytophtora parasitica; test: as above; format: cell-based
Protocol: as §1, §2, §3, §4, §5, §6

[10] = system: species of fungus (AA, BC, FO, GC, GR, PD, PE, PV, PhP); test: Fungicidal activity in vitro: total of inhibition grades over the nine species of fungus; format: cell-based; settings: sum of the grades over the nine fungi
Protocol: as §1, §2, §3, §4
The results obtained are analysed simply by using the assessment scale illustrated in Table 2:
The results obtained have been expressed in Table 3 using the scale in Table 2.

[11] = system: Escherichia coli; test: Bactericidal activity in vitro in LB agar medium; format: cell-based; settings: read-out: MIC (concentration needed to completely inhibit the growth of the bacteria)
Protocol: The bactericidal activity of eugenol and isoeugenol was evaluated in vitro and compared with that of other terpenes.
The culture medium used is the following LB medium:
Bactotryptone: 1% by weight
Yeast extract: 0.5% by weight
A suspension of bacteria at 10^6 CFU/ml was prepared in sterilized water from the LB medium. 200 μl of this bacterial suspension were added to 20 ml of presterilized LB culture medium brought to 55° C. The tested terpene is then added to the culture medium. After agitation, the medium is immediately divided among Petri dishes. The medium solidifies on cooling.
Incubation is carried out at 28° C. when the bacterium is Erwinia carotovora and at 37° C. when the bacterium is Escherichia coli.
The growth of mould in the culture medium is observed. The same experiment is carried out in the absence of terpene (control experiment).
The protocol used is that described above.

[12] = system: potato tubers; test: Sprouting-inhibiting treatment of potato tubers by thermal fogging; format: in vivo; settings: after 5 months; cold room 8 to 9° C.; 45 g/tonne then 15 g/tonne every 20 days by thermal fogging
Protocol: The effectiveness of eugenol and of isoeugenol in the sprouting-inhibiting treatment of potato tubers was evaluated and compared with that of other terpenes.
The following compositions were used in the case of eucalyptol, eugenol, isoeugenol, limonene, safrole and terpineol:
60% by weight of terpene;
7% by weight of a nonionic emulsifier;
33% by weight of butyl acetate.
In the case of L-carvone, the following composition was employed:
30% by weight of L-carvone;
10% by weight of ethanol;
5% by weight of nonionic emulsifier;
35% by weight of propylene glycol.
Isopropyl chlorophenylcarbamate (CIPC) is a compound used in the art as sprouting inhibitor for potato tubers. Its activity was compared with that of eugenol and of isoeugenol.
The composition based on isopropyl chloro-phenylcarbamate has the following formulation: […]
20% by weight of isopropyl chlorophenyl-carbamate;
50% by weight of propylene glycol;
10% by weight of nonionic emulsifier;
Each of the compositions tested was applied by thermal fogging. The temperature at the outlet of the thermal fogging device was 240° C., except in the case of the compositions based on L-carvone and on CIPC, where it was 180° C.
The amount of composition which has to be applied is calculated in each case so as to obtain an equivalent concentration of active material on the potato tubers.
In this example, repeated applications were carried out by following the following protocol:
45 g/tonne of tubers at the beginning of storage;
15 g/tonne of tubers every 20 days; so that, after 6 months, 165 g of active principle have been applied per tonne of tubers.
During storage, the tubers were stored in a cold room at a temperature of 8 to 9° C.

[13] = read-out: MIC (content giving complete inhibition of mycelial growth)

C=CCc1ccc2c(c1)OCO2 [SAFROLE, safrole]
Inhibition grades ([1]; AA, MIC expressed on the scale of Table 2): 5 (80-160)
MIC ([1]; Alternaria alternata, read-out: MIC (content giving complete inhibition of mycelial growth)): 80 to 160 µg/mL (≈ 493 to 987 µM)
Inhibition grades ([2]; BC, MIC expressed on the scale of Table 2): 5 (80-160)
MIC ([2]; Botrytis cinerea, read-out: MIC (content giving complete inhibition of mycelial growth)): 80 to 160 µg/mL (≈ 493 to 987 µM)
MIC ([3]; Fusarium oxysporum, read-out: MIC (content giving complete inhibition of mycelial growth)): 80 to 160 µg/mL (≈ 493 to 987 µM)
Inhibition grades ([3]; OF, MIC expressed on the scale of Table 2): 5 (80-160)
Inhibition grades ([4]; GC, MIC expressed on the scale of Table 2): 4 (160-320)
MIC [4, 13]: 160 to 230 µg/mL (≈ 987 to 1420 µM)
MIC ([5]; Clonostachys rosea, read-out: MIC (content giving complete inhibition of mycelial growth)): 40 to 80 µg/mL (≈ 247 to 493 µM)
Inhibition grades ([5]; GR, MIC expressed on the scale of Table 2): 6 (40-80)
Inhibition grades ([6]; PD, MIC expressed on the scale of Table 2): 4 (160-320)
MIC ([6]; Penicillium digitatum, read-out: MIC (content giving complete inhibition of mycelial growth)): 160 to 230 µg/mL (≈ 987 to 1420 µM)
Inhibition grades ([7]; PE, MIC expressed on the scale of Table 2): 2 (640-1280)
MIC ([7]; Penicillium expansum, read-out: MIC (content giving complete inhibition of mycelial growth)): 640 to 1280 µg/mL (≈ 3950 to 7890 µM)
Inhibition grades ([8]; PV, MIC expressed on the scale of Table 2): 5 (80-160)
MIC [8, 13]: 80 to 160 µg/mL (≈ 493 to 987 µM)
Inhibition grades ([9]; PhP, MIC expressed on the scale of Table 2): 6 (40-80)
MIC [9, 13]: 40 to 80 µg/mL (≈ 247 to 493 µM)
Total of the degrees of inhibition [10]: 42
MIC [11]: > 640 µg/mL
Loss in weight of the tubers [12]: 3.6%
Total weight of the sprouts >2 mm [12]: 57.0 g
Tubers at the white point stage [12]: 6.6%
Tubers with sprouts 2 to 5 mm [12]: 40.1%
Tubers with sprouts <2 mm [12]: 15.6%
Tubers with sprouts >2 mm [12]: 76.6%
Tubers with sprouts >5 mm [12]: 36.5%
Unsprouted tubers [12]: 1.2%
